Data published in a melting point compilation (Tetko et al.; mined from patent text by program, amines drawn as free bases though some values may be those of a salt).

First: NS(=O)(=O)CC(=O)c1ccc(Cl)cc1Cl
Second: CNC(=O)Nc1ccc(O)c(Cl)c1
The melting point of the first is lower: 136 to 139 °C for the first, 188 to 189 °C for the second.

First: COC(=O)C(=NO)c1cnsc1
Second: CCOC(=O)Cc1nsc(NC(=O)c2ccccc2)n1
The melting point of the first is lower: 110 to 112 °C for the first, 119 to 120 °C for the second.

Compared with OCC(O)CSC(=S)Nc1ccccn1 (stereo not given), CSC(Nc1cccnc1)=C(C#N)C#N is higher in melting point: 98 °C for the first, 180 to 181 °C for the second.

First: O=C(CNC(=O)c1ccc(F)cc1)c1ccoc1
Second: CCOC(=O)/C(=C\Nc1ccccc1OC)c1ccc(OC)cc1
The melting point of the first is higher: 142 to 143 °C for the first, 58 to 59 °C for the second.

First: NC(c1ccnc2cc(Cl)ccc12)C1CCCC(CNc2ccnc3cc(Cl)ccc23)C1 (stereo not given)
Second: O=c1[nH]c2cc(Cl)ccc2c(=O)cc1NCCc1ccccc1
The melting point of the first is lower: 92 to 95 °C for the first, 284 to 287 °C for the second.

CC(C)CCN1C(=O)C(N)C(=O)N(c2ccccc2F)c2ccccc21 (stereo not given) and CCCN1C(=O)C(NC(=O)C(N)Cc2ccccc2)N=C(N2CCN(C)CC2)c2ccccc21 (stereo not given) cannot be ordered by melting point: 125 to 160 °C for the first, 152 to 153 °C for the second.

C[C@H](NC(=O)C(SC(=O)c1ccccc1)SC(=O)c1ccccc1)C(=O)O and O=C(O)CN1C(=O)O[C@H](c2ccccc2)[C@@H]1c1ccccc1 cannot be ordered by melting point: 161 to 162 °C for the first, 161 to 163 °C for the second.

First: O=C(O)c1cc(OCCCOc2ccc(OCc3ccccc3)cc2)cc(OCCCOc2ccc(OCc3ccccc3)cc2)c1
Second: O=C(NCCCc1ccccc1)c1ccc2c(c1)C(Cl)(Cl)c1cc(C(=O)NCCCc3ccccc3)ccc1-2
The melting point of the first is lower: 139 to 140 °C for the first, 165 to 167 °C for the second.

First: CCOc1nsc(NC(=O)NC)c1C#N
Second: CCOC(=O)c1cccnc1N
The melting point of the first is higher: 244 °C for the first, 90.5 to 92.5 °C for the second.

Compared with COC(=O)CCc1cc2cc(Cl)c(Cl)cc2[nH]1, Sc1nc(-c2ccc(Cl)c(Cl)c2)c(-c2cccs2)[nH]1 is higher in melting point: 142 °C for the first, 263 to 265 °C for the second.

First: CCCCC[C@H]1CC[C@H](CCCCc2ccc(C#N)cc2)CC1
Second: CCCCNC(=O)NS(=O)(=O)c1cccc2c1CCCC2
The melting point of the first is lower: 51 °C for the first, 173 to 175 °C for the second.

First: CC(=O)Oc1c(C)cc(N(C)C(=O)OC(C)(C)C)c(C)c1C
Second: CCOC(=O)C(C)Sc1nc(-c2cc(C(C)(C)C)c(O)c(C(C)(C)C)c2)c[nH]1 (stereo not given)
The melting point of the first is higher: 103 to 104 °C for the first, 80 to 82 °C for the second.

Compared with O=C(O)c1cn(C2CC2)c2cc(N3CCN(C(=O)OCCn4cccn4)CC3)c(F)cc2c1=O, COc1ccc(Br)c(C(=O)N2CCN(S(=O)(=O)c3cccc(F)c3)CC2)c1 is lower in melting point: 205 to 208 °C for the first, 145 °C for the second.

First: O=C(O)c1cc(Oc2ccc(Br)cc2)cc(C(=O)O)c1
Second: CC(=O)c1c(O)cccc1OCCCCCOc1ccc2cc(C(=O)O)ccc2c1
The melting point of the first is higher: 310 to 320 °C for the first, 190 to 193 °C for the second.

First: CC(=O)Nc1ccc(C23CC2C(=O)N(C)C3=O)cc1 (stereo not given)
Second: CC(=O)Nc1ccc2c(c1)C(=O)C(Br)CCO2 (stereo not given)
The melting point of the first is higher: 183 to 184 °C for the first, 157 to 160 °C for the second.

First: O=C(c1cccs1)c1cnn2c(-c3cccc(-c4nnn(CCN5CCCCC5)n4)c3)ccnc12
Second: O=C(c1ccc(OCCN2CCCCC2)cc1)c1c(-c2ccc(O)cc2)ccc2ccccc12
The melting point of the first is lower: 117 °C for the first, 167 to 170 °C for the second.

First: CN(N)c1cnn(-c2cccc(C(F)(F)F)c2)c(=O)c1
Second: CCOC(=O)C1=Cc2cc(C)c(O)cc2OC1C(F)(F)F (stereo not given)
The melting point of the first is lower: 125 to 127 °C for the first, 151 to 153 °C for the second.

First: Brc1ccc(CN2CCN(c3ccncc3)CC2)cc1
Second: Cc1ccc2c(=O)[nH]c(N3CCN(CCO)CC3)cc2c1
The melting point of the first is lower: 140 to 141 °C for the first, 236 to 237 °C for the second.

First: COc1cc(OC)c2cc(-c3ccc(F)cc3)oc2c1
Second: COc1ccc(-n2nc(C#N)cc2-c2ccc(S(C)(=O)=O)cc2)cc1F
The melting point of the first is lower: 142 to 143 °C for the first, 192 to 193 °C for the second.

First: O=C1Nc2ccc(S(=O)(=O)N3CCC[C@H]3COc3ccccc3)cc2C1=O
Second: O=C(O)[C@H](Cc1ccc(OCc2ccccc2)cc1)NS(=O)(=O)c1ccc(F)cc1
The melting point of the first is higher: 204 to 206 °C for the first, 138 to 139 °C for the second.

Compared with CC(C)(C)CC(=O)c1ccc(OCC(=O)O)c(Cl)c1Cl, Cn1c(C(F)(F)F)nn(Cc2c(Cl)ccc(C(=O)O)c2Cl)c1=O is higher in melting point: 145 to 146 °C for the first, 207 °C for the second.

First: CC(=O)N1CCc2sc(C(=O)CCCN3CCC(c4noc5cc(F)ccc45)CC3)cc2C1
Second: CN1CN(c2ccccc2)C2(CCN(CCCC(=O)c3ccc(F)cc3I)CC2)C1=O
The melting point of the first is higher: 235 °C for the first, 115 to 118 °C for the second.

Compared with CCCCc1oc2ccccc2c1C(=O)NCc1ccc2c(-c3ccc(OC)cc3)c(OCC#N)ccc2c1, COC(=O)c1c(-c2ccc(C)cc2)c2cc(OCc3ccccc3)ccc2c(=O)n1CC(C)C is higher in melting point: 139 to 142 °C for the first, 142 to 143 °C for the second.

First: O=C1CCOc2ccc(OCc3ccc4ccccc4n3)cc21
Second: COCc1ccoc1-c1cccc(-n2c(N)nc3ccccc32)c1
The melting point of the first is lower: 112 to 114 °C for the first, 134 to 136 °C for the second.

First: CC(C)(COc1ccc2ncc(Cl)n2n1)CS(N)(=O)=O
Second: CC(C)Oc1cc(Oc2ccc(S(C)(=O)=O)cn2)cc2cc(C3=NCC(CC(C)(C)O)S3)[nH]c12 (stereo not given)
The melting point of the first is higher: 197 to 200 °C for the first, 151 to 153 °C for the second.

First: CCOC(=O)c1cnc2nc(C)c(OCC)cc2c1O
Second: CCCCOc1ccccc1-c1ncc(C(=O)O)c(=O)[nH]1
The melting point of the first is higher: 255 to 258 °C for the first, 163 to 165 °C for the second.

First: O=C(O)Cn1c(=O)n(Cc2ccccc2)c2ccccc21
Second: Cc1cc(Cn2c(-c3ccccc3)nc(Cl)c2CC(=O)O)ccc1OCc1ccccc1
The melting point of the first is higher: 200 to 202 °C for the first, 177 to 178 °C for the second.

First: CCC1(O)CCC2C3CCC4=C(CC=C(OC)C4)C3CCC21C (stereo not given)
Second: COc1cc(N)c(Cl)cc1C(=O)NC1CC2CCCCN2C1 (stereo not given)
The melting point of the first is lower: 131 to 134 °C for the first, 192 to 193 °C for the second.

First: C=CC[C@H](C(N)=O)[C@@H](CC(C)C)C(=O)NC1N=C(N2CCCCC2)c2ccccc2N(C)C1=O (stereo not given in full)
Second: CC(=O)NC[C@H]1CN(c2ccc(N3CCC(C#N)(Nc4ccccc4)CC3)c(F)c2)C(=O)O1
The melting point of the first is higher: 231 to 238 °C for the first, 81 to 85 °C for the second.

First: CCn1cc(CN(C(=O)C2CCc3c(O)cccc32)c2ccc(C(C)C)cc2)cn1 (stereo not given)
Second: CCOC(=O)c1csc(Cc2ccc(NC(=O)/C=C/c3cnn(C)c3-c3ccc(F)cc3)cc2)n1
The melting point of the first is higher: 205 to 206 °C for the first, 189 to 190 °C for the second.

First: CCOC(=O)C=Cc1ccc2c(c1)CC(CNS(=O)(=O)c1ccc(Cl)cc1)C2 (stereo not given)
Second: Cc1cccc(Cl)c1Nc1ccccc1CC(=O)O
The melting point of the first is lower: 113 to 115 °C for the first, 124 to 125 °C for the second.

First: Cc1c(-c2ccnnc2)ssc1=S
Second: Clc1csc(-c2cccnc2)n1
The melting point of the first is higher: 146 °C for the first, 84 to 86 °C for the second.

First: COC(=O)C=C(Nc1ccc2[nH]c(=O)oc2c1)C(=O)OC
Second: COc1ccc(CCNC(=O)N(O)C(C)C)cc1OC
The melting point of the first is higher: 172 °C for the first, 113 to 114 °C for the second.

Compared with CCOC(=O)CCc1cc(CCC(=O)O)cc(Oc2cccnc2)c1, COc1ccc(C[C@@H](NC(=O)OCc2ccccc2)[C@H](O)C(=O)O)cc1 is higher in melting point: 85 to 87 °C for the first, 160 to 162 °C for the second.

First: COCCCN1C(=O)CS(=Cc2ccccc2Cl)C1=O (stereo not given)
Second: O=C1c2ccccc2C=C(Cl)C(Cl)c2ccccc21 (stereo not given)
The melting point of the first is lower: 83 °C for the first, 123 to 125 °C for the second.

First: O=C(O)c1cccc(-c2ccn(-c3ccc(OC(F)F)cc3)n2)c1
Second: O=C(OCc1ccccc1)N1CCc2c(sc3nc(CCl)c(Cl)c(-c4ccc(OCC(F)(F)F)cc4)c23)C1
The melting point of the first is higher: 182 to 183 °C for the first, 166 to 167 °C for the second.

Compared with CC(C)C(=O)Nc1nc2c(ncn2C2OC(CO)C(O)C2OC2CCCO2)c(=O)[nH]1 (stereo not given), CCOP(=O)(COCCC(CO)On1cnc2c(N)ncnc21)OCC (stereo not given) is lower in melting point: 178 to 180 °C for the first, 86 to 88 °C for the second.

First: COc1ccc(CCN2CCC(=C3c4ccn(C)c4CCn4ncnc43)CC2)cc1
Second: COc1ccn2nc(-c3ccccc3F)c(-c3ccc(=O)n(C(C)C)n3)c2c1
The melting point of the first is lower: 139 °C for the first, 174 to 175 °C for the second.

First: CC1(C)C=C(CN2C/C(=C\c3ccc(F)cc3)C(=O)/C(=C/c3ccc(F)cc3)C2)C(C)(C)N1O
Second: CS(=O)(=O)c1ccc(-c2nn(CCc3ccccc3)cc2-c2ccc(F)cc2)cc1
The melting point of the first is lower: 142 to 144 °C for the first, 170 to 171 °C for the second.

First: COc1cccc(N2CCN(C(=O)[C@](C)(C#N)[C@H](c3ccccc3OC)c3cccc4ccccc34)CC2)c1
Second: CCOP(=O)(OCC)c1c(C)c2c(c(C)c1-c1c(OCc3ccccc3)ccc3ccccc13)CN(S(=O)(=O)c1ccc(C)cc1)C2
The melting point of the first is higher: 147 to 148 °C for the first, 69.8 to 71.7 °C for the second.

First: CC1(C)C=C(c2ccccn2)c2cc(-c3ccccc3)ccc2OC1
Second: COC(=O)C(C)c1ccc(OCCNC(=O)C2Cc3ccccc3N2S(=O)(=O)c2ccc(-c3cccc(C(F)(F)F)c3)cc2)cc1 (stereo not given)
The melting point of the first is higher: 115 to 120 °C for the first, 71 to 74 °C for the second.

Compared with CC1CCN(C(=O)c2ccc3nonc3c2)CC1, O=C(OC1CCC1)c1ccc(O)c(C(=O)O)c1 is higher in melting point: 86 to 87 °C for the first, 200 °C for the second.

First: CC(C)(C)c1ccc(Cn2c(=O)n(Cc3ccc(C(C)(C)C)cc3)c3ccccc32)cc1
Second: CN(Cc1nc(-c2cc(C(C)(C)C)c(O)c(C(C)(C)C)c2)cs1)c1ccc([N+](=O)[O-])cc1
The melting point of the first is lower: 164 to 168 °C for the first, 199 to 201 °C for the second.

Compared with O=C(O)CCCCCCc1cccc(-c2nc(=O)c3ccccc3s2)n1, NS(=O)(=O)c1ccc(-c2c(-c3ccccc3)noc2COCC(F)(F)C(F)(F)C(F)(F)CO)cc1 is lower in melting point: 149 to 151 °C for the first, 50 to 51 °C for the second.

First: CCCN(CCC)C1Cc2cccc(C(=O)O)c2NC1=O (stereo not given)
Second: CSCC(C)(C)NC(=O)c1c(I)cccc1[N+](=O)[O-]
The melting point of the first is higher: 214 to 217 °C for the first, 114 to 115 °C for the second.

First: Nc1cccc(C(=O)N2CC3CC(CN(Cc4ccccc4)C3)C2)c1
Second: Cc1cccc(-c2n[nH]cc2-c2ccc(F)c(-c3cn4c(n3)S(=O)(=O)CC4)c2)n1
The melting point of the first is higher: 178 °C for the first, 134 to 138 °C for the second.

Compared with CN(C)C(=O)c1nc(Cl)c(Cl)[nH]1, CC(C)(C)OC(=O)C1C=CCn2c(=O)n(CCCl)c(=O)n21 (stereo not given) is lower in melting point: 245 °C for the first, 87 to 88 °C for the second.

First: CC1Oc2ccc(CN3CCN(c4nc5c(c(=O)n(C)c(=O)n5C)n4C)CC3)cc2NC1=O (stereo not given)
Second: Cn1c(COc2ccc(CC3SC(=O)NC3=O)cc2)nc2ccc(Oc3cccc(NC(=O)Nc4cccc(C#N)c4)c3)cc21 (stereo not given)
The melting point of the first is lower: 130 to 138 °C for the first, 148 to 154 °C for the second.

First: Cc1ccc(-c2cncc(OC3SCC(O)C(O)C3O)c2)cc1C (stereo not given)
Second: COc1ccc(-c2nc3cccc(OC)c3c(=O)[nH]2)nc1-c1ccc(S(C)=O)cc1 (stereo not given)
The melting point of the first is lower: 184 °C for the first, 308 to 310 °C for the second.

First: O=S(=O)(O)CCc1cccnc1
Second: CC(C)CN1C(=O)CC(C)(C)CC1=O
The melting point of the first is higher: 275 to 278 °C for the first, 48 to 52 °C for the second.
